This is an account of results in patent US20010055590A1, “Method for enhancing myoblast migration and invasion in the context of gene therapy” (priority 1999, published 2001).

What all share (type): cell-based
One test relates to mouse myoblasts. Briefly: In vitro mouse myoblast migration assay (gelatin-coated membrane). The conditions noted are these: 12 hours; for stimulation of mouse myoblast migration over the DMEM control: 25 ng/ml bFGF, 50 μg/ml fibronectin, 10 ng/ml HGF, 2 ng/ml TGF-β1; for effect on mouse myoblast migration: stimulant in bottom chamber. The protocol:
Mouse myoblasts were previously isolated from hind limb muscles of 4-6 week old severe combined immunodeficient (SCID) mice and clonally purified from contaminating fibroblasts (Yao et al. “Primary myoblast-mediated gene: transfer: persistent expression of human factor IX in mice” Gene Therapy 1:99-107, 1994). Myoblasts (approximately 1×10^6 cells) were plated on 6 cm tissue culture plates coated with 0.5% gelatin (Sigma, St. Louis, Mo.) and grown in growth medium consisting of Dulbecco's Modified Eagle Medium (DMEM) (Gibco BRL, Gaithersburg Md.) supplemented with 20% fetal bovine serum (FBS; Gibco) and 0.5% chick embryo extract (CEE; Gibco). All animal studies were carried out following the institutional guidelines for ethical animal use. Human myoblasts were isolated using trypsin digestion from abdominal wall or chest wall muscle biopsies, and surgery. Written consent was obtained from all patients prior to biopsy isolation as approved by the University Hospital's Institutional Regulation Board on the use of human subjects. Cells were preplated on uncoated plates for 1 hour to separate muscle fibroblasts. […] All experiments were done with myoblasts of passage 7 or lower. Myoblast migration and invasion were examined using a commercially available in vitro cell migration and invasion assay kit (Biocoat, Becton Dickinson, Franklin Lakes, N.J.) as described by Albini et al. (A rapid in vitro assay for quantitating the invasive potential of tumor cells Cancer Res 47:3239-3245, 1987). Myoblasts were grown to approximately 70% confluence, rinsed three times in serum-free DMEM, followed by incubation for 3 hours in 0.2% bovine serum albumin (BSA) in DMEM to eliminate the effects of serum. Cells were then trypsinized and collected by centrifugation. Cells were resuspended in serum-free DMEM at a density of 1×10^5 cells/ml, and 0.5 ml aliquots of cell suspension were added to the top chamber. […] Fibronectin subfragments of 45 KDa (Sigma), 120 kDa (Gibco), 63 kDa (Retronectin, Takara) and 70 KDa (Sigma) were used alone or in combination. […] For migration studies, the upper chamber membrane was coated with 0.1% gelatin and cells were allowed to migrate for 8-12 hours, while for invasion studies, the upper membrane was coated with 5 μl of Matrigel® diluted to 5 mg/ml in sterile phosphate buffered saline (PBS) and cells were allowed to invade for 24 hours. The top side of the insert membrane was scrubbed free of cells using a cotton swab and the bottom side was stained using the Leukostat-I system (Fisher Diagnostics, Pittsburgh, Pa.). The number of cells per field was counted in 10 randomly selected fields and averaged for each condition. To evaluate the effects of inactivation or activation of MMPs, aliquots (0.05 units in 50 μl PBS) of purified human plasmin (Sigma) or 50 mM N-acetyl cysteine (NAC; Sigma) were added with the cells to the top chamber of the migration assay and growth factor was added to the bottom. […] Myoblasts (5×10^4 cells/well) were stimulated with various growth factors and fibronectin, and their ability to migrate or invade through a Matrigel® barrier (panel a, mouse myoblast migration at 12 hours; panel b, mouse myoblast invasion at 24 hours). […] Bars represent mean ±SEM from a minimum of 3 separate experiments. […] Further studies were done to elucidate the role of MMPs in cytokine-mediated mouse myoblast migration.

The next test concerns human myoblasts. Briefly: In vitro human myoblast migration assay. The conditions noted are these: 12 hour time point. The protocol:
Mouse myoblasts were previously isolated from hind limb muscles of 4-6 week old severe combined immunodeficient (SCID) mice and clonally purified from contaminating fibroblasts (Yao et al. “Primary myoblast-mediated gene: transfer: persistent expression of human factor IX in mice” Gene Therapy 1:99-107, 1994). Myoblasts (approximately 1×10^6 cells) were plated on 6 cm tissue culture plates coated with 0.5% gelatin (Sigma, St. Louis, Mo.) and grown in growth medium consisting of Dulbecco's Modified Eagle Medium (DMEM) (Gibco BRL, Gaithersburg Md.) supplemented with 20% fetal bovine serum (FBS; Gibco) and 0.5% chick embryo extract (CEE; Gibco). All animal studies were carried out following the institutional guidelines for ethical animal use. Human myoblasts were isolated using trypsin digestion from abdominal wall or chest wall muscle biopsies, and surgery. Written consent was obtained from all patients prior to biopsy isolation as approved by the University Hospital's Institutional Regulation Board on the use of human subjects. Cells were preplated on uncoated plates for 1 hour to separate muscle fibroblasts. Approximately 95% of the cells were desmin-positive following immunohistochemical staining of representative culture samples, and were capable of differentiation into myotubes, indicating high purity of the myoblast preparation. All experiments were done with myoblasts of passage 7 or lower. Myoblast migration and invasion were examined using a commercially available in vitro cell migration and invasion assay kit (Biocoat, Becton Dickinson, Franklin Lakes, N.J.) as described by Albini et al. (A rapid in vitro assay for quantitating the invasive potential of tumor cells Cancer Res 47:3239-3245, 1987). Myoblasts were grown to approximately 70% confluence, rinsed three times in serum-free DMEM, followed by incubation for 3 hours in 0.2% bovine serum albumin (BSA) in DMEM to eliminate the effects of serum. Cells were then trypsinized and collected by centrifugation. Cells were resuspended in serum-free DMEM at a density of 1×10^5 cells/ml, and 0.5 ml aliquots of cell suspension were added to the top chamber. […] Fibronectin subfragments of 45 KDa (Sigma), 120 kDa (Gibco), 63 kDa (Retronectin, Takara) and 70 KDa (Sigma) were used alone or in combination. The growth factor concentrations used were those which could produce maximal effects as examined in the present studies by extending from values reported by Bischoff (“Chemotaxis of skeletal muscle satellite cells” Devel. Dynamics 208:505-515, 1997). For migration studies, the upper chamber membrane was coated with 0.1% gelatin and cells were allowed to migrate for 8-12 hours, while for invasion studies, the upper membrane was coated with 5 μl of Matrigel® diluted to 5 mg/ml in sterile phosphate buffered saline (PBS) and cells were allowed to invade for 24 hours. The top side of the insert membrane was scrubbed free of cells using a cotton swab and the bottom side was stained using the Leukostat-I system (Fisher Diagnostics, Pittsburgh, Pa.). The number of cells per field was counted in 10 randomly selected fields and averaged for each condition. To evaluate the effects of inactivation or activation of MMPs, aliquots (0.05 units in 50 μl PBS) of purified human plasmin (Sigma) or 50 mM N-acetyl cysteine (NAC; Sigma) were added with the cells to the top chamber of the migration assay and growth factor was added to the bottom. […] The effects of growth factors on human myoblast migration in vitro (12 hour time point) were somewhat different from those observed with mouse myoblasts. […] The greatly elevated level of migration of human myoblasts was due in part to the extremely low migration in the BSA control (basal level) of human cells compared to mouse cells. The largest effects on human myoblast migration were produced by fibronectin (100-fold), PDGF (about 62-fold), TGF-β (about 54-fold) and HGF (46-fold) over the control level, while bFGF produced only a 37-fold stimulation (FIG. 7a). […]

The test system of another test is MMP-2. Kind of test: Gelatin zymography of mouse myoblast culture medium, MMP-2. The conditions noted are these: mouse myoblasts treated 24 hours; densitometry normalized to DMEM control.

Procedure for MMP-2: Briefly, myoblasts were grown in 6 cm tissue culture plates to approximately 70% confluence, then rinsed three times with serumfree DMEM and incubated for 3 hours in DMEM containing 0.2% BSA to eliminate the effects of serum. Growth factors were added and cells were incubated for 24 hours. Culture medium was then collected, centrifuged to pellet detached cells, and concentrated ten-to twenty-fold using the Centricon-10 (Amicon, Beverly, Mass.) system. The protein concentration of the supernatants was determined using the Bio-Rad protein microassay system with BSA used as the standard. Samples were stored at −70° C. until use. For gelatin zymography, aliquots (10 μg as the total protein per sample) were electrophoresed at constant voltage on a 10% polyacrylamide gel containing 2 mg/ml gelatin. The gel was rinsed three times for 15 min in 2.5% Triton-X 100 to remove SDS and renature the proteins, then incubated in MMP activation buffer (0.05 M Tris-HCl, pH 7.5 with 5 mM CaCl2) for 24 hours at 37° C. with constant shaking. Gels were stained overnight in 0.5% Coomassie blue R-250, and destained for 1 hour in 40% methanol: 10% acetic acid. Proteinase activity was quantified by densitometric scanning of bands using a Bio-Rad Gel Doc 1000 video camera imaging system (Bio Rad, Hercules, Calif.). […] Values are arbitrary densitometric units, which are normalized to DMEM control for each experiment and shown as values ±SEM representing a minimum of 3 experiments per condition. […] Mouse myoblasts were treated for 24 hours with either DMEM alone, fibronectin (50 μg/ml), or individual fragments (37.5 μg/ml) of 45, 120, 63 (Retronectin), 75 kDa and their combinations, 45 kDa/120 kDa and 120 kDa/63 kDa.

In the case of “recombinant hepatocyte growth factor [HGF]”, in the test with mouse myoblasts, the “stimulation of mouse myoblast migration over the DMEM control” value is 8 fold and the “effect on mouse myoblast migration” value is recorded as “stimulated migration of mouse myoblasts to various degrees”. Also, the “stimulation of human myoblast migration over the BSA control level” value (“stimulation … over the BSA control level” for short) in the test with human myoblasts came to 46 fold.
As to “recombinant human insulin-like growth factor-I [IGF-I]”, in the test on mouse myoblasts, the “effect on mouse myoblast migration” value is on record as “stimulated migration of mouse myoblasts to various degrees”. The “increase of total MMP-2 expression” value in the test on MMP-2 was 69%.
For the molecule “purified human transforrning growth factor-β1 [TGF-β1]”, in the test on mouse myoblasts, the “stimulation of mouse myoblast migration over the DMEM control” value amounted to 5 fold and the “effect on mouse myoblast migration” value is listed as “stimulated migration of mouse myoblasts to various degrees”. In the test with MMP-2, the “increase of total MMP-2 expression” value turned out to be 36%. In the test on human myoblasts, the “stimulation … over the BSA control level” value is reported as “about 54 fold”.

B1: recombinant human platelet-derived growth factor-BB (protein, UniProt P01127 82-190, looked up)
Platelet-derived growth …: SLGSLTIAEPAMIAECKTRTEVFEISRRLIDRTNANFLVWPPCVEVQRCSGCCNNRNVQCRPTQVQLRPVQVRKIEIVRKKPIFKKATVTLEDHLACKCETVAAARPVT
modifications: Platelet-derived growth factor subunit B
notes: recombinant human platelet-derived growth factor-BB
Take B1: the “effect on mouse myoblast migration” value with mouse myoblasts was “stimulated migration of mouse myoblasts to various degrees”. Moreover, in the test on MMP-2, the “increase of total MMP-2 expression” value was determined as 35%. In addition, the “stimulation … over the BSA control level” value in the test on human myoblasts is given as “about 62 fold”.
